In PubChem BioAssay AID328 (DTP/NCI, 2004):
Toxic doses and inconclusive results are not listed. Rule for the calls: active = survival T/C of 150% or more; inactive = T/C below 125% in these data.

Test system: BDF1 mice, P388 leukemia ip, median survival T/C
Assay: NCI In Vivo Anticancer Drug Screen. Data for tumor model P388 Leukemia (intraperitoneal) in B6D2F1 (BDF1) mice
Conditions: endpoint: median survival time, higher = longer survival
In short: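 Each value expresses how treatment altered survival: treated-mouse outcome over vehicle-mouse outcome, both groups bearing the transplanted tumour.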

[1] = dose: 100.0 mg/kg/injection, schedule: Q04DX003 (ip), vehicle: saline with Tween-80
[2] = dose: 200.0 mg/kg/injection, schedule: Q04DX003 (ip), vehicle: saline with Tween-80
[3] = dose: 400.0 mg/kg/injection, schedule: Q04DX003 (ip), vehicle: saline with Tween-80
[4] = dose: 50.0 mg/kg/injection, schedule: Q01DX009 (ip), vehicle: saline with Tween-80
[5] = dose: 100.0 mg/kg/injection, schedule: Q01DX009 (ip), vehicle: saline with Tween-80
[6] = dose: 200.0 mg/kg/injection, schedule: Q01DX009 (ip), vehicle: saline with Tween-80
[7] = dose: 50.0 mg/kg/injection, schedule: Q04DX003 (ip), vehicle: saline with Tween-80
[8] = dose: 33.0 mg/kg/injection, schedule: Q01DX009 (ip), vehicle: saline
[9] = dose: 50.0 mg/kg/injection, schedule: Q01DX009 (ip), vehicle: saline
[10] = dose: 400.0 mg/kg/injection, schedule: Q01DX009 (ip), vehicle: saline with Tween-80

Measured: T/C

N#CN(Cc1ccc(Cl)cc1Cl)C(=O)OCOc1ccc(Cl)cc1
inactive: [1] 100 % of control | [2] 90 % of control | [3] 109 % of control

Nc1cc2ccccc2c(O)c1O
inactive: dose: 75.0 mg/kg/injection, schedule: Q04DX003 (ip), vehicle: saline sonified 100 % of control | dose: 150.0 mg/kg/injection, schedule: Q04DX003 (ip), vehicle: saline sonified 111 % of control | dose: 300.0 mg/kg/injection, schedule: Q04DX003 (ip), vehicle: saline sonified 94 % of control

O=[N+]([O-])C(CO)(CO)CO
inactive: dose: 100.0 mg/kg/injection, schedule: Q04DX003 (ip), vehicle: saline 95 % of control | dose: 200.0 mg/kg/injection, schedule: Q04DX003 (ip), vehicle: saline 100 % of control | dose: 400.0 mg/kg/injection, schedule: Q04DX003 (ip), vehicle: saline 100 % of control

CCC(c1ccc(OC)cc1)C(NCC(=O)N/N=C/c1ccccc1[N+](=O)[O-])c1ccc(OC)cc1 (stereo unspecified)
inactive: dose: 12.5 mg/kg/injection, schedule: Q01DX001 (ip), vehicle: saline with Tween-80 91 % of control

CCOC12CC(OC(=O)N1)C(C)C1OC1(C)C(OC(=O)C(C)N(C)C(C)=O)CC(=O)N(C)c1cc(cc(OC)c1Cl)C/C(C)=C/C=CC2OC (stereo unspecified)
inactive: dose: 1.6 micrograms/kg/injection, schedule: Q01DX009 (ip), vehicle: saline + alcohol 99 % of control | dose: 3.1 micrograms/kg/injection, schedule: Q01DX009 (ip), vehicle: saline + alcohol 99 % of control | dose: 6.2 micrograms/kg/injection, schedule: Q01DX009 (ip), vehicle: saline + alcohol 99 % of control | dose: 12.5 micrograms/kg/injection, schedule: Q01DX009 (ip), vehicle: saline + alcohol 101 % of control | dose: 25.0 micrograms/kg/injection, schedule: Q01DX009 (ip), vehicle: saline + alcohol 116 % of control | dose: 50.0 micrograms/kg/injection, schedule: Q01DX009 (ip), vehicle: saline + alcohol 98 % of control | dose: 100.0 micrograms/kg/injection, schedule: Q01DX009 (ip), vehicle: saline + alcohol 105 % of control | dose: 200.0 micrograms/kg/injection, schedule: Q01DX009 (ip), vehicle: saline + alcohol 98 % of control | dose: 400.0 micrograms/kg/injection, schedule: Q01DX009 (ip), vehicle: saline + alcohol 100 % of control

CCOC(=O)N1CCN(CCCOc2ccc(Cl)cc2Cc2ccccc2)CC1
inactive: [4] 96 % of control | [5] 96 % of control | [6] 105 % of control

c1cnc2c3c(ccc2c1)CN(C1CCCCC1)CO3
inactive: [7] 104 % of control | [1] 104 % of control | [2] 90 % of control

COc1ccc2c(C(=O)CCC(=O)O)cccc2c1
inactive: dose: 100.0 mg/kg/injection, schedule: Q01DX001 (ip), vehicle: saline 100 % of control | dose: 200.0 mg/kg/injection, schedule: Q01DX001 (ip), vehicle: saline 100 % of control | dose: 400.0 mg/kg/injection, schedule: Q01DX001 (ip), vehicle: saline 100 % of control

CCCCCCCCCCCC[N+](CC)(CC)CC(=O)O
inactive: [8] 113 % of control | [9] 113 % of control

COC1=C2CCCCC2=[N+]2CCc3ccccc3C2C1 (stereo unspecified)
inactive: dose: 25.0 mg/kg/injection, schedule: Q01DX001 (ip), vehicle: saline sonified 100 % of control | dose: 50.0 mg/kg/injection, schedule: Q01DX001 (ip), vehicle: saline sonified 95 % of control | dose: 100.0 mg/kg/injection, schedule: Q01DX001 (ip), vehicle: saline sonified 95 % of control

COc1cc2c(=O)n(C)c3c4cc5c(cc4ccc3c2cc1OC)OCO5
inactive: dose: 1.0 mg/kg/injection, schedule: Q01DX010 (ip), vehicle: steriod suspending solution 103 % of control | dose: 3.0 mg/kg/injection, schedule: Q01DX010 (ip), vehicle: steriod suspending solution 117 % of control | dose: 6.0 mg/kg/injection, schedule: Q01DX010 (ip), vehicle: steriod suspending solution 110 % of control

O=C1c2ccccc2C(=O)N1C1CCC(O)CC1 (stereo unspecified)
inactive: dose: 25.0 mg/kg/injection, schedule: Q01DX009 (ip), vehicle: saline with Tween-80 109 % of control | dose: 25.0 mg/kg/injection, schedule: Q04DX003 (ip), vehicle: saline with Tween-80 104 % of control | [4] 86 % of control | [7] 109 % of control | [5] 90 % of control | [1] 104 % of control

O=S1ON=C(C2CCC(C3=NOS(=O)O3)C2)O1 (stereo unspecified)
inactive: dose: 25.0 mg/kg/injection, schedule: Q01DX005 (ip), vehicle: saline with Tween-80 97 % of control | dose: 50.0 mg/kg/injection, schedule: Q01DX005 (ip), vehicle: saline with Tween-80 104 % of control | dose: 100.0 mg/kg/injection, schedule: Q01DX005 (ip), vehicle: saline with Tween-80 114 % of control

CC(C)=CCC/C(C)=C/CN1C(=O)c2ccccc2C1=O
inactive: [5] 92 % of control | [1] 87 % of control | [6] 92 % of control | [2] 96 % of control | [10] 108 % of control | [3] 94 % of control

Cc1c(CO)[nH]c(=S)[nH]c1=O
inactive: dose: 100.0 mg/kg/injection, schedule: Q01DX001 (ip), vehicle: Klucel (hydroxypropylcellulose) (HPC) 90 % of control | dose: 200.0 mg/kg/injection, schedule: Q01DX001 (ip), vehicle: Klucel (hydroxypropylcellulose) (HPC) 104 % of control | dose: 400.0 mg/kg/injection, schedule: Q01DX001 (ip), vehicle: Klucel (hydroxypropylcellulose) (HPC) 95 % of control

CSc1cccc(NC(=O)Oc2cc(C)c(Cl)c(C)c2Cl)c1
inactive: dose: 6.25 mg/kg/injection, schedule: Q01DX009 (ip), vehicle: DMSO 117 % of control | dose: 12.5 mg/kg/injection, schedule: Q01DX009 (ip), vehicle: DMSO 102 % of control

C(=Nc1ccccc1)c1ccc(-c2ccccc2)cc1
inactive: [5] 115 % of control | [1] 104 % of control | [6] 100 % of control | [2] 104 % of control | [10] 115 % of control | [3] 109 % of control

CN(C)CCCCc1cn(-c2ccccc2)c2ccccc12
inactive: dose: 12.5 mg/kg/injection, schedule: Q01DX009 (ip), vehicle: saline 105 % of control | dose: 27.5 mg/kg/injection, schedule: Q01DX001 (ip), vehicle: saline 100 % of control | [8] 109 % of control | [9] 104 % of control | dose: 55.0 mg/kg/injection, schedule: Q01DX001 (ip), vehicle: saline 108 % of control | dose: 110.0 mg/kg/injection, schedule: Q01DX001 (ip), vehicle: saline 108 % of control

CCCC1CC(C(=O)NC(C(C)Cl)C2OC(SC)C(O)C(O)C2O)N(C)C1 (stereo unspecified)
inactive: [9] 100 % of control | dose: 100.0 mg/kg/injection, schedule: Q01DX009 (ip), vehicle: saline 94 % of control | dose: 200.0 mg/kg/injection, schedule: Q01DX009 (ip), vehicle: saline 102 % of control

CC1SCC(=O)N1c1nccs1 (stereo unspecified)
inactive: [4] 99 % of control | [5] 100 % of control | [6] 102 % of control

CNC(=S)NNc1ccccc1
inactive: dose: 50.0 mg/kg/injection, schedule: Q01DX009 (ip), vehicle: Klucel (hydroxypropylcellulose) (HPC) 96 % of control | dose: 100.0 mg/kg/injection, schedule: Q01DX009 (ip), vehicle: Klucel (hydroxypropylcellulose) (HPC) 91 % of control | dose: 100.0 mg/kg/injection, schedule: Q04DX003 (ip), vehicle: Klucel (hydroxypropylcellulose) (HPC) 90 % of control | dose: 200.0 mg/kg/injection, schedule: Q01DX009 (ip), vehicle: Klucel (hydroxypropylcellulose) (HPC) 95 % of control | dose: 200.0 mg/kg/injection, schedule: Q04DX003 (ip), vehicle: Klucel (hydroxypropylcellulose) (HPC) 95 % of control | dose: 400.0 mg/kg/injection, schedule: Q01DX009 (ip), vehicle: Klucel (hydroxypropylcellulose) (HPC) 95 % of control | dose: 400.0 mg/kg/injection, schedule: Q04DX003 (ip), vehicle: Klucel (hydroxypropylcellulose) (HPC) 100 % of control
